Assays:
[1] = tested on: primary parental breast carcinoma cells; assay: LAPase release into cell supernatants following estrogen stimulation; assay type: cell-based, human
Protocol: Primary parental breast carcinoma cells were incubated with 100 nM 17-β-Estradiol for 24 hrs and cell media alone as a control. LAPase in supernatants was isolated using MAb 7B6(IgG1a)-protein-G-LAPase beads prepared by covalently cross-linking the monoclonal antibody. LAPase activity of the LAPase-immunoprecipitated supernatants was determined fluorometrically using leucine-β-naphthylamide as the substrate as described by Kuramochi et al. [Kuramochi, H. et al., (1987) J. Antibiot., 401605-1611].
During the same period, LAPase in cell supernatants of control cells remain unchanged. In addition, LAPase activity was determined in supernatants of primary parental cell lines immunoprecipitated with MAb 7B6(IgG1a)-protein-G-LAPase matrix bound antibodies. […] In addition, there was no effect of estrogen incubation on LAPase activity in purified preparations of this enzyme alone.

[2] = tested on: LAPase (purified preparations obtained from Sigma); assay: LAPase activity of purified enzyme preparations incubated with 17-β-Estradiol; assay type: biochemical; settings: 100 nM 17-β-Estradiol, 24 hrs
Protocol: Purified preparations of the enzyme obtained from Sigma were incubated with 100 nM 17-β-Estradiol for 24 hrs. LAPase activity was determined fluorometrically using leucine-β-naphthylamide as the substrate as described by Kuramochi et al. [Kuramochi, H. et al., (1987) J. Antibiot., 401605-1611].

es-LAPase = es-LAPase enzyme kinetic inhibition assay (1-leucine-β-naphthylamide substrate); assay type: biochemical, human; settings: for effect on es-LAPase activity / reaction rate (FIG. 2): 167 μM Bestatin, 167 μM reduced Glutathione, 17 μM reduced thioredoxin, versus control es-LAPase; for Km / Vmax of es-LAPase in presence of inhibitor / Ki: Bestatin 167 μM, Glutathione 167 μM, Thioredoxin 17 μM; for Km: LAPase alone 1.67 ± 0.14, read-out: Km of es-LAPase in presence of inhibitor; for Vmax of es-LAPase in presence of inhibitor: LAPase alone 36.8 ± 1.9; for Ki: read-out: Ki (inhibition constant); for mode of es-LAPase inhibition: from Vmax, Km and Ki analysis
Protocol: The kinetic assays were performed using a Spectronic Genesys 5 spectrophotometer from Milton Roy (Rochester, N.Y.). Absorbance was recorded every sixty seconds, over a period of 30 min. Enzyme kinetic assays were performed using 8.0×10^−2 U of es-LAPase in a final reaction volume of 600 μl and triplicate samples. […] A corresponding blank without es-LAPase was used as baseline. Both of the cuvettes were transferred to the spectrophotometer where the 1-leucine-β-naphthylmide solution was added last, marking time zero of the reaction.

Molecule | effect on es-LAPase activity / reaction rate (FIG. 2) (es-LAPase) | Km (es-LAPase) [µM] | Vmax of es-LAPase in presence of inhibitor (es-LAPase) | Ki (es-LAPase) [nM] | mode of es-LAPase inhibition (es-LAPase) | extracellular LAPase activity of estrogen stimulated cells ([1]; 100 nM, 24 hours, supernatants immunoprecipitated with MAb 7B6-protein-G matrix, control with media alone 6.4×10^−6 U/ml) | estrogen concentration of maximum release / optimal activation of LAPase ([1]; 24 hours of incubation, dose-dependent) [nM] | effect of estrogen incubation on LAPase activity in purified preparations of the enzyme alone [2]
C[C@]12CC[C@@H]3c4ccc(O)cc4CC[C@H]3[C@@H]1CC[C@@H]2O [estrogen, 17-β-Estradiol] | – | – | – | – | – | 7.7×10^−5 U/ml | 100 | no effect
Thioredoxin: thiol-containing peptide; human Thioredoxin purified from CD4+T MP6 cells, compared to E. coli Thioredoxin from Sigma-Aldrich (protein, UniProt P10599 2-105, looked up) Thioredoxin: VKQIESKTAFQEALDAAGDKLVVVDFSATWCGPCKMIKPFFHSLSEKYSNVIFLEVDVDDCQDVASECEVKCMPTFQFFKKGQKVGEFSGANKEKLEATINELV | significant slower rates of reaction | 23.4 ± 0.6 | 5.31 ± 0.02 10^−6 M/min | 3400 ± 580 | uncompetitive | – | – | –

Second part, led by results:

effect on es-LAPase activity / reaction rate (FIG. 2) (es-LAPase) | Km (es-LAPase) [µM] | Vmax of es-LAPase in presence of inhibitor (es-LAPase) | Ki (es-LAPase) [nM] | mode of es-LAPase inhibition (es-LAPase) | Molecule | extracellular LAPase activity of estrogen stimulated cells ([1]; 100 nM, 24 hours, supernatants immunoprecipitated with MAb 7B6-protein-G matrix, control with media alone 6.4×10^−6 U/ml) | estrogen concentration of maximum release / optimal activation of LAPase ([1]; 24 hours of incubation, dose-dependent) [nM] | effect of estrogen incubation on LAPase activity in purified preparations of the enzyme alone [2]
significant slower rates of reaction | 178 ± 25 | 17.2 ± 1.5 10^−6 M/min | 1530 ± 400 | noncompetitive | N[C@@H](CCC(=O)N[C@@H](CS)C(=O)NCC(=O)O)C(=O)O [Glutathione] | – | – | –
clearly inhibits es-LAPase activity | – | 34.0 ± 3.9 10^−6 M/min | – | competitive | CC(C)C[C@H](NC(=O)[C@@H](O)[C@H](N)Cc1ccccc1)C(=O)O [Bestatin] | – | – | –

Reference: US20040106143A1, “Monoclonal antibody against estrogen stimulated leucine aminopeptidase” (priority 2000, published 2004)
